Like-named read-outs stand apart in the source and are kept apart here.
Key:
Assay in all cases: SelectScreen kinase specificity survey
Format in all cases: biochemical
[1] = target: T1, MAPK3 (ERK1) (Homo sapiens, UniProt P27361); settings: estimated, abridged dose response curve, read-out: Kinase inhibitory activity EC50
T1 construct: purchased Invitrogen, Inc. (SelectScreen service)
Method in brief: (§1)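 230-kinase panel; kinase-specific substrate plus optical reporter; ATP 100 micromolar; 5-point inhibitor titration; 4-parameter Hill fit gives estimated EC50.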

[2] = target: T2, CLK1 (Homo sapiens, UniProt P49759); settings: estimated, abridged dose response curve, read-out: Kinase inhibitory activity EC50
T2 construct: purchased Invitrogen (SelectScreen platform)
Method in brief: as §1

[3] = target: T3, AKT1 (PKB alpha) (Homo sapiens, UniProt P31749); settings: estimated, abridged dose response curve, read-out: Kinase inhibitory activity EC50
T3 construct: purchased Invitrogen (SelectScreen platform)
T3 sequence (P31749 whole entry): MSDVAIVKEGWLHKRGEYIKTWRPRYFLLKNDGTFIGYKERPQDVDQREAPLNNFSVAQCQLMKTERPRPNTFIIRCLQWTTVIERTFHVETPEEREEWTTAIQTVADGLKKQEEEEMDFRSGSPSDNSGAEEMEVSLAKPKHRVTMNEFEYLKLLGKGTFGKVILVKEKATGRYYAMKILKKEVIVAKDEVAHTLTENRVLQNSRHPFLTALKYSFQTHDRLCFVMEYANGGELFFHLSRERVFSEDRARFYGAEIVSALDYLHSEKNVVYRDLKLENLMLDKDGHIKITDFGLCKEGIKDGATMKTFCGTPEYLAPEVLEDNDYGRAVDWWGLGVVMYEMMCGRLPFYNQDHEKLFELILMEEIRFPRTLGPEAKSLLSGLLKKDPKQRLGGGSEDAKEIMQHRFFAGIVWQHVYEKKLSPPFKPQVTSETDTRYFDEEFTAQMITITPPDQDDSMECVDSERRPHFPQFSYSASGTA
Method in brief: as §1

[4] = target: T4, MAP2K6 (MKK6) (Homo sapiens, UniProt P52564); settings: estimated, abridged dose response curve, read-out: Kinase inhibitory activity EC50
T4 construct: purchased Invitrogen (SelectScreen platform)
T4 sequence (P52564 whole entry): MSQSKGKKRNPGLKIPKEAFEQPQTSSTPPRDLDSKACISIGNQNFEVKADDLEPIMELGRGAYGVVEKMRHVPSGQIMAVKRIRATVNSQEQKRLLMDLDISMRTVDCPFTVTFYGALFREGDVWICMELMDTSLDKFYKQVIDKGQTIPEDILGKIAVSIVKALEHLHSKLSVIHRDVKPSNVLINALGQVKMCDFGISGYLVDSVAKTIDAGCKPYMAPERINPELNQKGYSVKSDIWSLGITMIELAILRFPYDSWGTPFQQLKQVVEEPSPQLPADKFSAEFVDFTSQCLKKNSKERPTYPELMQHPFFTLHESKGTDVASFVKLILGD
Method in brief: as §1

[5] = target: T5, PDGFRA T674I (Homo sapiens, UniProt P16234, T674I); settings: estimated, abridged dose response curve, read-out: Kinase inhibitory activity EC50
T5 construct: purchased Invitrogen (SelectScreen platform)
Method in brief: as §1

[6] = target: T6, ABL1 T315I (Homo sapiens, UniProt P00519, T315I); settings: estimated, abridged dose response curve, read-out: Kinase inhibitory activity EC50
T6 construct: purchased Invitrogen (SelectScreen platform)
Method in brief: as §1

[7] = target: T7, CSNK2A1 (CK2 alpha 1) (Homo sapiens, UniProt P68400); settings: estimated, abridged dose response curve, read-out: Kinase inhibitory activity EC50
T7 construct: purchased Invitrogen, Inc. (SelectScreen service)
T7 sequence (P68400 whole entry): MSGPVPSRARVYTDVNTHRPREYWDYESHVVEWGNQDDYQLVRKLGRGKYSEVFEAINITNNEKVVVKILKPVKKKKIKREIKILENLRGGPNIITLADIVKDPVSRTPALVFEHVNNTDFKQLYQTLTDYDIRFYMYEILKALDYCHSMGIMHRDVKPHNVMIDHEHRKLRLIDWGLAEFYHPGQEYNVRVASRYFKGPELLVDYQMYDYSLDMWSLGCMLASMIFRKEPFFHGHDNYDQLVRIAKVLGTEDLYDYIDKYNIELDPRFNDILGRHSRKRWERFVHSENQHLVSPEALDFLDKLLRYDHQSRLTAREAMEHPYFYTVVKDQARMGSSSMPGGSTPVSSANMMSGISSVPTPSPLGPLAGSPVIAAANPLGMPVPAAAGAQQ
Method in brief: as §1

[8] = target: T8, EPHB4 (Homo sapiens, UniProt P54760); settings: estimated, abridged dose response curve, read-out: Kinase inhibitory activity EC50
T8 construct: purchased Invitrogen (SelectScreen service)
Method in brief: as §1

[9] = target: T9, RET (Homo sapiens, UniProt P07949); settings: estimated, abridged dose response curve, read-out: Kinase inhibitory activity EC50
T9 construct: purchased Invitrogen (SelectScreen)
Method in brief: as §1

[10] = target: T10, MAPK8 (JNK1) (Homo sapiens, UniProt P45983); settings: estimated, abridged dose response curve, read-out: Kinase inhibitory activity EC50
T10 construct: purchased Invitrogen, Inc. (SelectScreen service)
Method in brief: as §1

[11] = target: T11, LTK (TYK1) (Homo sapiens, UniProt P29376); settings: estimated, abridged dose response curve, read-out: Kinase inhibitory activity EC50
T11 construct: purchased Invitrogen (SelectScreen platform)
T11 sequence (P29376 17-864): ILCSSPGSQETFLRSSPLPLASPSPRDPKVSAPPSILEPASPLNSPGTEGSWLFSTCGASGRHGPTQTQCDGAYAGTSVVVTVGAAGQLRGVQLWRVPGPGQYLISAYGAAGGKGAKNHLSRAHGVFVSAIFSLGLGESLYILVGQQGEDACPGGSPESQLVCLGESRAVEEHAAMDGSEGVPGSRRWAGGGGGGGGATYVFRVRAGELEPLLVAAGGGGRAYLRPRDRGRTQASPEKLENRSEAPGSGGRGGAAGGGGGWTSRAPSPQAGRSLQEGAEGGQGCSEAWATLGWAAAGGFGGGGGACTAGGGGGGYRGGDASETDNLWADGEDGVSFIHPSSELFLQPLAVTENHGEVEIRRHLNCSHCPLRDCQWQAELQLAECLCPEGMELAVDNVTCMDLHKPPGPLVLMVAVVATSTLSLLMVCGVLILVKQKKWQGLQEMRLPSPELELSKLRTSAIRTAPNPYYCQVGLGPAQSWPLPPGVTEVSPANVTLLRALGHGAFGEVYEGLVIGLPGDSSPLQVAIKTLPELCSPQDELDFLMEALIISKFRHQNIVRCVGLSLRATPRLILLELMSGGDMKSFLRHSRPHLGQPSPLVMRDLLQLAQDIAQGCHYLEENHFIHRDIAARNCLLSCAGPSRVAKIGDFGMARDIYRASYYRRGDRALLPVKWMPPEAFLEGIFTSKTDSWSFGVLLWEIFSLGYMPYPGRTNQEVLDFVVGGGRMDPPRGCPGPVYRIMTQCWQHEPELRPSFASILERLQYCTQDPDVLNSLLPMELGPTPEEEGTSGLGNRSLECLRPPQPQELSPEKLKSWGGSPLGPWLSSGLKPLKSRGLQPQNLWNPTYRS
Method in brief: as §1

[12] = target: T12, FGFR1 (Homo sapiens, UniProt P11362); settings: estimated, abridged dose response curve, read-out: Kinase inhibitory activity EC50
T12 construct: purchased Invitrogen (SelectScreen service)
Method in brief: as §1

[13] = target: T13, MAPK14 (p38 alpha) (Homo sapiens, UniProt Q16539); settings: estimated, abridged dose response curve, read-out: Kinase inhibitory activity EC50
T13 construct: purchased Invitrogen, Inc. (SelectScreen service)

[14] = target: T14, ALK (Homo sapiens, UniProt Q9UM73); settings: estimated, abridged dose response curve, read-out: Kinase inhibitory activity EC50
T14 construct: purchased Invitrogen (SelectScreen platform)
T14 sequence (Q9UM73 19-1620): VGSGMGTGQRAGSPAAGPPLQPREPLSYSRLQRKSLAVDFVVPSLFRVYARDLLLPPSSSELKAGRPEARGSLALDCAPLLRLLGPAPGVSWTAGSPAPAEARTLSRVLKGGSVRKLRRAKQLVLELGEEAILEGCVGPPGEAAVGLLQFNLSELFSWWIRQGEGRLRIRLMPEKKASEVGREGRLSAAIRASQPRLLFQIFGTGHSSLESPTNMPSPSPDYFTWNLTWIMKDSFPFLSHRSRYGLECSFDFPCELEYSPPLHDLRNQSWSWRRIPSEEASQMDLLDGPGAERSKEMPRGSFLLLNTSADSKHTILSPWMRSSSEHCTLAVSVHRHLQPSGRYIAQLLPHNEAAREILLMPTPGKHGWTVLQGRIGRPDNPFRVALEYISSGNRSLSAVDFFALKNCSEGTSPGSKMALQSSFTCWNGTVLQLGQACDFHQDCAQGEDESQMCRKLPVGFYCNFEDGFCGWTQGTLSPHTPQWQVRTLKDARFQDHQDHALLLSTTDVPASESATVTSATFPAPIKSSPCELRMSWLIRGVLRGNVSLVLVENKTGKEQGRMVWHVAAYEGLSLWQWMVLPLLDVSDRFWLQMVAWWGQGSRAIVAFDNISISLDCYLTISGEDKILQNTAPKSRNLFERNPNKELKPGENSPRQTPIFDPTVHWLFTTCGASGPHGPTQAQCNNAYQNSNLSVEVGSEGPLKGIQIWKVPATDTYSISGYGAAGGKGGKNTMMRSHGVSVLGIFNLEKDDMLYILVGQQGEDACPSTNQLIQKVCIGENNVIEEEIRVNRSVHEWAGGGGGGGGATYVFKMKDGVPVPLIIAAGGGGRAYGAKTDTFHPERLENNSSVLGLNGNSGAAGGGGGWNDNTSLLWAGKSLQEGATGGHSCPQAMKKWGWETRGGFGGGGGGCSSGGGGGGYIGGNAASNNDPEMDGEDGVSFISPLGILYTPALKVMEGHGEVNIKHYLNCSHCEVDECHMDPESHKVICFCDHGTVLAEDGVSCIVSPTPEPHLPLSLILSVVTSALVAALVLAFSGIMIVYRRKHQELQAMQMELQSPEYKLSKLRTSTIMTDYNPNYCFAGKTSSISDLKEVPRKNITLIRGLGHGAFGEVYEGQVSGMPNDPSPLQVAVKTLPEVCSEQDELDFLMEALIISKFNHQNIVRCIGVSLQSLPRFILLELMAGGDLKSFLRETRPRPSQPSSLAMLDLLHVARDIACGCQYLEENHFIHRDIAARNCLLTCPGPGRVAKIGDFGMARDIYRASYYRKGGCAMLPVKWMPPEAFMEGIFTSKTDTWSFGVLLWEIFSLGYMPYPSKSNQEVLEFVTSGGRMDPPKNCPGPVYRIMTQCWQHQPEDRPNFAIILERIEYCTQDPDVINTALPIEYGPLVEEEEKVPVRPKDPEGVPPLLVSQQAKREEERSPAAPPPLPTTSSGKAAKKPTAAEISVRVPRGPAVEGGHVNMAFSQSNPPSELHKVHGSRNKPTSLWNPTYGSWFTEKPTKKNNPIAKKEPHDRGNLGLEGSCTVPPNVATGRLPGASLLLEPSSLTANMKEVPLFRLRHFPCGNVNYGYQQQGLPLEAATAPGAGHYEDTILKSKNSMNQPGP
Method in brief: as §1

[15] = target: T15, EGFR (ErbB1) L858R (Homo sapiens, UniProt P00533, L858R); settings: estimated, abridged dose response curve, read-out: Kinase inhibitory activity EC50
T15 construct: purchased Invitrogen (SelectScreen service)
Method in brief: as §1

[16] = target: T16, MAPKAPK3 (Homo sapiens, UniProt Q16644); settings: estimated, abridged dose response curve, read-out: Kinase inhibitory activity EC50
T16 construct: purchased Invitrogen, Inc. (SelectScreen platform)
Method in brief: as §1

[17] = target: T17, EPHA5 (Homo sapiens, UniProt P54756); settings: estimated, abridged dose response curve, read-out: Kinase inhibitory activity EC50
T17 construct: purchased Invitrogen (SelectScreen service)
T17 sequence (P54756 25-1037): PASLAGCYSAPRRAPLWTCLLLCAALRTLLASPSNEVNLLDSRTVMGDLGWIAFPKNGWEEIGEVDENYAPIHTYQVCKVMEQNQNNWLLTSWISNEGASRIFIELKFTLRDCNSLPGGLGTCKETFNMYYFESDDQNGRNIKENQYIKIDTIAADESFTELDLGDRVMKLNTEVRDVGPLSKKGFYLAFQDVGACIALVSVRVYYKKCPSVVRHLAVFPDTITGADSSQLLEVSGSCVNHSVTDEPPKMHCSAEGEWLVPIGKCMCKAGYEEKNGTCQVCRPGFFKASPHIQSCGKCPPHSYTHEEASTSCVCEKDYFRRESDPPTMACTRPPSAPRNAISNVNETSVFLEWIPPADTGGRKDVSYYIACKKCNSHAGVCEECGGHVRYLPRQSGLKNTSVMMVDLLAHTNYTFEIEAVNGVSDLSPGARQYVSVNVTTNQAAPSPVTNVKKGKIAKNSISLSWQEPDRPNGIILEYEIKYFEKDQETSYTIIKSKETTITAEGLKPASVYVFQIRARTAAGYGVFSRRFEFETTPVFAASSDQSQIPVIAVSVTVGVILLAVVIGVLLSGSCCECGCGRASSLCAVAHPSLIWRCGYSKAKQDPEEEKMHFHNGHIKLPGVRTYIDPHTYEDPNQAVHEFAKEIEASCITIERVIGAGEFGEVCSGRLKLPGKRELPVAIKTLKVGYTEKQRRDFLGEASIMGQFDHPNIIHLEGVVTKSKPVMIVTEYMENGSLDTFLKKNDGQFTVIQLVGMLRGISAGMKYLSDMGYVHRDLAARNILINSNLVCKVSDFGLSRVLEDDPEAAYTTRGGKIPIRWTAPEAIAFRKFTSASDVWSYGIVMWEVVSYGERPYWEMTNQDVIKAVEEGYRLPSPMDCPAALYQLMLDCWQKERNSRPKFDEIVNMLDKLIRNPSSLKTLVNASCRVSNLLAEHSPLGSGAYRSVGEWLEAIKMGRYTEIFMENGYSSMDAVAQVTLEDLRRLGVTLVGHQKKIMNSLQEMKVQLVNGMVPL
Method in brief: as §1

[18] = target: T18, PDK1 (Homo sapiens, UniProt O15530); settings: estimated, abridged dose response curve, read-out: Kinase inhibitory activity EC50
T18 construct: purchased Invitrogen (SelectScreen platform)
Method in brief: as §1

[19] = target: T19, NEK9 (Homo sapiens, UniProt Q8TD19); settings: estimated, abridged dose response curve, read-out: Kinase inhibitory activity EC50
T19 construct: purchased Invitrogen, Inc. (SelectScreen service)
Method in brief: as §1

[20] = target: T20, RET V804L (Homo sapiens, UniProt P07949, V804L); settings: estimated, abridged dose response curve, read-out: Kinase inhibitory activity EC50
T20 construct: purchased Invitrogen (SelectScreen)
Method in brief: as §1

[21] = target: T21, AMPK A1/B1/G1 (Homo sapiens, UniProt P54619+Q13131+Q9Y478); settings: estimated, abridged dose response curve, read-out: Kinase inhibitory activity EC50
T21 construct: purchased Invitrogen, Inc. (SelectScreen platform)
Method in brief: as §1

[22] = target: T22, MAP2K2 (MEK2) (Homo sapiens, UniProt P36507); settings: estimated, abridged dose response curve, read-out: Kinase inhibitory activity EC50
T22 construct: purchased Invitrogen (SelectScreen platform)
Method in brief: as §1

[23] = target: T23, PRKCI (PKC iota) (Homo sapiens, UniProt P41743); settings: estimated, abridged dose response curve, read-out: Kinase inhibitory activity EC50
T23 construct: purchased Invitrogen, Inc. (SelectScreen platform)
Method in brief: as §1

[24] = target: T24, PRKX (Homo sapiens, UniProt P51817); settings: estimated, abridged dose response curve, read-out: Kinase inhibitory activity EC50
T24 construct: purchased Invitrogen (SelectScreen platform)
T24 sequence (P51817 whole entry): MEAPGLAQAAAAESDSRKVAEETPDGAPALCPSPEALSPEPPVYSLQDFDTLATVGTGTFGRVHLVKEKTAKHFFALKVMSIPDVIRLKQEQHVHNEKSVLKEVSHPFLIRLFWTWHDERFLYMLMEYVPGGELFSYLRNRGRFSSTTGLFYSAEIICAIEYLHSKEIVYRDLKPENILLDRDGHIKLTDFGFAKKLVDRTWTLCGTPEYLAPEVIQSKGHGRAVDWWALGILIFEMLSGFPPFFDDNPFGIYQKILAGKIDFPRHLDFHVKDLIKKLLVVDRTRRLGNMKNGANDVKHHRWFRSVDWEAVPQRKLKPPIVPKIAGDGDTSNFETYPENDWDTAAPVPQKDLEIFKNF
Method in brief: as §1

[25] = target: T25, MAPKAPK2 (Homo sapiens, UniProt P49137); settings: estimated, abridged dose response curve, read-out: Kinase inhibitory activity EC50
T25 construct: purchased Invitrogen, Inc. (SelectScreen platform)
Method in brief: as §1

[26] = target: T26, GRK5 (Homo sapiens, UniProt P34947)
T26 construct: purchased Invitrogen (SelectScreen platform)
Method in brief: as §1

[27] = target: T27, RPS6KA4 (MSK2) (Homo sapiens, UniProt O75676); settings: estimated, abridged dose response curve, read-out: Kinase inhibitory activity EC50
T27 construct: purchased Invitrogen, Inc. (SelectScreen platform)
Method in brief: as §1

SMILES	EC50 [1] [µM]	EC50 [2] [µM]	EC50 [3] [µM]	EC50 [4] [µM]	EC50 [5] [µM]	EC50 [6] [µM]	EC50 [7] [µM]	EC50 [8] [µM]	EC50 [9] [µM]	EC50 [10] [µM]	EC50 [11] [µM]	EC50 [12] [µM]	EC50 [13] [µM]	EC50 [14] [µM]	EC50 [15] [µM]	EC50 [16] [µM]	EC50 [17] [µM]	EC50 [18] [µM]	EC50 [19] [µM]	EC50 [20] [µM]	also measured
CN(C)CCCNc1ccc2ncn3c4ccc5[nH]ncc5c4c(=O)c1c23 [Compound (IV)]	> 5	0.444	> 5	> 5	> 5	> 5	> 5	> 5	0.587	> 5	> 5	3.57	3.79	4.63	> 5	> 5	> 5	2.9	2.93	0.864	EC50 [21]: > 5 µM; EC50 [22]: > 5 µM; EC50 [23]: > 5 µM; EC50 [24]: 1.4 µM; EC50 [25]: > 5 µM; EC50 ([26]; GRK5, estimated, abridged dose response curve, read-out: Kinase inhibitory activity EC50): > 5 µM; EC50 [27]: > 5 µM
CCN(CC)CCNc1ccc2ncn3c4ccc(O)cc4c(=O)c1c23 [Symadex, 5-(2-(diethylamino)ethylamino)-8-hydroxy-6H-imidazo[4,5,1-de]acridin-6-one, reference compound]	> 5	2.18	> 5	> 5	> 5	> 5	> 5	> 5	1.12	> 5	> 5	2.39	2.97	2.48	> 5	> 5	> 5	> 5	> 5	0.735	EC50 [21]: 3.48 µM; EC50 [22]: > 5 µM; EC50 [23]: > 5 µM; EC50 [24]: 3.56 µM; EC50 [25]: > 5 µM; EC50 [26]: > 5 µM; EC50 [27]: > 5 µM

— patent US20100292231A1, “Indazole Compounds for Treating Inflammatory Disorders, Demyelinating Disorders and Cancers” (priority 2007, published 2010)
